This is an account of results in PubChem BioAssay (NCI).

Test systems include SF-295 CNS; TK-10 renal; SW-620 colon; MOLT-4 leukemia; SK-OV-3 ovarian; EKVX NSCLC; ACHN renal; MCF7 breast; NCI-H226 lung; SR leukemia.
What all share (test): growth of human tumour cells (NCI), 48 h

Molecules are shown by their SMILES.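 In this assay, cells in 96-well plates receive the compound at five concentrations for 48 hours. Endpoints are linearly interpolated between the surrounding concentrations. Here, GI50 denotes the concentration required for 50% inhibition of growth. TGI: concentration producing complete growth inhibition.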

For `CN(CCCNC(=O)c1nn(-c2ccc(Cl)cc2Cl)c2c1Cc1ccccc1-2)CCCNC(=O)c1nn(-c2ccc(Cl)cc2Cl)c2c1Cc1ccccc1-2`, the TGI in the test with SF-295 CNS stood at 3.15 µM; with TK-10 renal, 3.14 µM; with SW-620 colon, 3.06 µM; in the test on MOLT-4 leukemia it was 3.98 µM; in the test on SK-OV-3 ovarian it was 3.06 µM; in the test with EKVX NSCLC, 3.26 µM.
On to `CCCc1ccc(NCc2cc(OC)c(OC)c(OC)c2)cc1`, for which the TGI in the test with TK-10 renal is more than 100 µM; in the test on MOLT-4 leukemia, 66.2 µM; in the test on ACHN renal, more than 100 µM; with SK-OV-3 ovarian, 66.3 µM; in the test on EKVX NSCLC it was more than 100 µM.
Take `c1ccc(CSCCc2ccncc2)cc1`: the TGI with SF-295 CNS, with TK-10 renal, in the test on SW-620 colon, with MOLT-4 leukemia, in the test with MCF7 breast and with ACHN renal was more than 100 µM throughout. Further, the TGI in the test with NCI-H226 lung, in the test on SK-OV-3 ovarian and in the test on EKVX NSCLC was more than 100 µM in each case.
On to `[N-]=[N+]=C1C(=O)C2CC3CC(C2)CC1C3`, for which the TGI in the test on SF-295 CNS, with SR leukemia, in the test with TK-10 renal, in the test with SW-620 colon, with MOLT-4 leukemia and with ACHN renal was more than 100 µM in each case. Moreover, the TGI with NCI-H226 lung, in the test with SK-OV-3 ovarian and in the test with EKVX NSCLC was more than 100 µM each time.
As to `COc1cccc(NC(=O)C(C#N)=C(SC)SC)c1`, the TGI in the test with SF-295 CNS, in the test on TK-10 renal, with SW-620 colon, in the test with MOLT-4 leukemia, with MCF7 breast and in the test with ACHN renal was more than 100 µM in each case. Also, the TGI in the test on NCI-H226 lung, in the test with SK-OV-3 ovarian and in the test with EKVX NSCLC was more than 100 µM in each case.
`CC1OC(OC2C(OC(=O)[C@@H]3CC(C)(C)C[C@H]4C5=CC[C@@H]6[C@@]7(C)C[C@H](O)[C@H](OC8OC(CO)C(O)C(O)C8O)[C@@](C)(CO)[C@@H]7[C@H](O)C[C@@]6(C)[C@]5(C)CC[C@@]34C)OCC(O)C2O)C(O)C(O)C1O` (some centres undefined): the TGI in the test with SF-295 CNS, with TK-10 renal, in the test with SW-620 colon, with MOLT-4 leukemia, in the test on MCF7 breast and with ACHN renal was more than 7.5 µM throughout. Also, the TGI in the test with NCI-H226 lung, in the test with SK-OV-3 ovarian and in the test with EKVX NSCLC was more than 7.5 µM in each case.
Turning to `CC1OC(O[C@H]2/C=C/C=C/C=C/C=C/C=C/C=C/C=C/[C@H](C)[C@@H](O)[C@@H](C)[C@H](C)OC(=O)CC(O)CC(O)CCC(O)C(O)CC(O)C[C@]3(O)C[C@H](O)C(C(=O)O)C(C2)O3)C(O)[C@H](N)C1O` (some centres undefined), the GI50 was 18.6 µM with SF-295 CNS; 2660 nM with TK-10 renal; 2580 nM in the test on SW-620 colon; 2900 nM in the test on MOLT-4 leukemia; 5.02 µM in the test on MCF7 breast; 1680 nM in the test on ACHN renal. For the same compound, the GI50 with NCI-H226 lung was 2000 nM; with EKVX NSCLC it was 3.4 µM. Further, the TGI was 38 µM with SF-295 CNS; 5.31 µM in the test on TK-10 renal; 7.73 µM in the test on SW-620 colon; 6.02 µM in the test on MOLT-4 leukemia; 19.7 µM in the test with MCF7 breast; 3.18 µM in the test with ACHN renal. The TGI in the test with NCI-H226 lung was 4.31 µM; with EKVX NSCLC, 11 µM.
Regarding `COc1ccc(/C=C2\CN(C)C/C(=C\c3ccc(OC)c(OC)c3OC)C2=O)c(OC)c1OC`, the TGI in the test on SF-295 CNS was found to be 1.01 µM; in the test on SR leukemia, 0.0854 µM; in the test with TK-10 renal it was 2.33 µM; in the test with SW-620 colon it was 0.425 µM; in the test on MOLT-4 leukemia, 0.0574 µM; in the test with ACHN renal it was 0.565 µM. Further, the TGI in the test with NCI-H226 lung came to 2.49 µM; with SK-OV-3 ovarian, 1.89 µM; in the test on EKVX NSCLC, 4.37 µM.
`CCC[C@H](C)C[C@H](C)C[C@H](C)/C=C(\C)[C@@H](O)[C@@H](C)C(=O)CC`: the TGI with SF-295 CNS turned out to be 37.9 µM; in the test with TK-10 renal, 38.3 µM; in the test on SW-620 colon, 43 µM; with MOLT-4 leukemia it was 43.3 µM; in the test on MCF7 breast, 42.7 µM; with ACHN renal it was 39 µM. Also, the TGI with NCI-H226 lung is 42.6 µM; in the test on SK-OV-3 ovarian it was more than 100 µM; with EKVX NSCLC, 34.7 µM.
`CSCCC(NC(=O)Cc1ccc(C(=O)c2ccccc2)cc1)C(=O)O` (centres undefined): the TGI in the test with SF-295 CNS, with TK-10 renal, with SW-620 colon, in the test with MOLT-4 leukemia, with MCF7 breast and in the test on ACHN renal was more than 100 µM throughout. Moreover, the TGI with NCI-H226 lung, with SK-OV-3 ovarian and with EKVX NSCLC was more than 100 µM throughout.
On to `O=C(CSC1=NCCN1)Nc1ccccc1`, for which the TGI in the test on SF-295 CNS is more than 100 µM; in the test on SR leukemia, more than 100 µM; in the test on TK-10 renal, 43.9 µM; in the test with SW-620 colon, more than 100 µM; in the test on MOLT-4 leukemia it was more than 100 µM; in the test on ACHN renal, 53.8 µM. The compound further had a TGI in the test on EKVX NSCLC of more than 100 µM.
For the compound `COc1cc(/C=C(/C#N)C(N)=O)ccc1O`, the TGI in the test with SF-295 CNS, with SW-620 colon, with MOLT-4 leukemia, in the test with MCF7 breast, with NCI-H226 lung and in the test on SK-OV-3 ovarian was more than 100 µM throughout. Further, the TGI in the test with EKVX NSCLC was more than 100 µM.
`CC(NC(C)(C)C)C(=O)c1cccc(Cl)c1` (centres undefined): the TGI in the test with SF-295 CNS, in the test with TK-10 renal, in the test with SW-620 colon, in the test with MOLT-4 leukemia, with ACHN renal and in the test with SK-OV-3 ovarian was more than 100 µM throughout. The same compound displayed a TGI in the test on EKVX NSCLC of more than 100 µM.
On to `Fc1ccccc1C1SCc2nc3cc4ccccc4cc3n21` (centres undefined), for which the TGI in the test with SF-295 CNS, in the test with TK-10 renal, with SW-620 colon, with MOLT-4 leukemia, in the test with MCF7 breast and in the test with ACHN renal was more than 100 µM in each case. In addition, the TGI with NCI-H226 lung, in the test on SK-OV-3 ovarian and in the test on EKVX NSCLC was more than 100 µM each time.
For `CCN(CC)Cc1sc2nc3ccccc3n2c1-c1ccc(OC)cc1`, the TGI in the test on SF-295 CNS, with TK-10 renal, in the test with SW-620 colon, in the test with MOLT-4 leukemia, with MCF7 breast and with ACHN renal was more than 100 µM in each case. Moreover, the TGI in the test with NCI-H226 lung is 71.4 µM; with SK-OV-3 ovarian, more than 100 µM; in the test on EKVX NSCLC, 75.1 µM.
